Assay results as given in patent US20240041976A1, “COMPOSITION AND USE” (priority 2020, published 2024).
Where two headings read alike, the source gives them in different places. No end group written: not given here.

How the values were obtained:
[1] = test system: MRSA ATCC 33591; experiment: microbe, parasite or virus in culture; assay type: cell-based, Staphylococcus aureus; conditions: Staphylococcus aureus, 24 h, read-out: MIC, single antimicrobial
Procedure: (§1) Antimicrobial activity was measured using the AAMP assay (Wiegand et al., 2008, Nat. Protoc., Vol. 3(2), p 163-175).
(§2) Synergy testing was done with a microtiter plate checkerboard assay as previously described (Orhan et al., 2005, J. Clin. Microbiol., Vol. 43(1), p 140-143). Briefly, equal amounts of antimicrobial A were applied on microtiter plate 1 in wells A1-H1 and then diluted two-fold to wells 2-12. Similarly, equal amounts of antimicrobial B were applied on microtiter plate 2 in wells A1-A12 and diluted two-fold in wells B-H. Volumes of 50 μl of antimicrobial A from each well of microtiter plate 1 were transferred into microtiter plate 3, except for wells H1-H12. Similarly, the same volumes were transferred from microtiter plate 2 into plate 3, except for wells A1-A8. A 100 μl volume of 25 times diluted ON bacterial culture of MRSA was transferred into each well of plate 3. A 50 μl volume of pure broth was added into each well in lines H1-H12 and A1-A8 which were used to estimate MIC values of pure substances (blank).
(§3) Antimicrobial activity was measured using the AAMP assay as described in Example 2.
(§4) Synergy testing was performed as in Example 2.

[2] = test system: S. haemolyticus strains 4068-4073; experiment: microbe, parasite or virus in culture; assay type: cell-based; conditions: 5 hour incubation
Procedure: Bacteriocins and antimicrobial assays. K1-EJ and garvicin KS peptides (Gak-A, -B and -C) were synthesized by Pepmic Co., Ltd, China, with >95% purity. These bacteriocins were all solubilized in 0.1% (vol/vol) trifluoracetic acid (TFA; Sigma-Aldrich). Micrococcin P1 was purchased from Cayman Chemical, Michigan, USA with 95% purity and solubilized in a 50% (v/v) mixture of isopropanol (Merck) […] (Sigma-Aldrich) at a stock concentration of 1 mg/ml. Cell growth inhibition assays and antimicrobial synergy determination was performed in line with Example 1.
To investigate whether there was synergy between the three bacteriocins (K1-EJ, GarKS and MP1), a checkboard antimicrobial assay was performed. The selected strains were treated for 5, 24 and 48 h with a range of concentrations of K1-EJ, GarKS and MP1 alone or in different combinations. […] Double combinatorial treatments (GarKS/MP1; K1-EJ/GarKS; K1-EJ/MP1) increased the antimicrobial activity of the bacteriocins. […] This was particularly evident at the 24 and 48 h time-points.

[3] = test system: S. pseudintermedius MRSP 45; experiment: microbe, parasite or virus in culture; assay type: cell-based, Staphylococcus pseudintermedius; conditions: Staphylococcus pseudintermedius, MRSP45, MRSP 45, 24 h, read-out: MIC, single component
Procedure: as §1, §2, §3, §4

[4] = test system: Methicillin-Resistant Staphylococcus aureus; assay type: in vivo, mice; conditions: repeat on larger groups; data not shown
Procedure: The experiment was performed essentially as set out in Example 2, except that the following regimes as described below, were used.
50-70 μl of cream was applied per wound.
Treatment was daily for 4 days.
The rifampicin/MP1 experiment was repeated on a larger group of mice in each category (8 mice for each of rifampicin, MP1, rifampicin+MP1, 8 mice with APO base cream 30% as used for rifampicin and MP1, 7 mice untreated). Seven mice were also treated with fucidin cream (2% fusidic acid in a cream base) as a positive control.

[5] = test system: MRSA ATCC 33521-lux; experiment: Agar plate spot assay, resistance development (FIG. 4); assay type: cell-based, Staphylococcus aureus; conditions: up to 72 h incubation at 37° C.
Procedure: Pure GarKS and PenG each at 50 μg, MP1 at 0.1 μg, were applied at the indicated spots. The pictures of the plates were taken after 24, 48 and 72 h of incubation at 37° C. Sections of the inhibition zones on the right show resistance development seen as small white dots (in the inhibition zones of GarKS and MP1).

[6] = test system: E. faecium LMGT 3104; experiment: microbe, parasite or virus in culture; assay type: cell-based, Enterococcus faecium; conditions: Enterococcus faecium, LMGT3104, read-out: MIC, single antimicrobial
Procedure: as §1, §2, §3, §4

[7] = test system: lactococci, listeria and enterococci; experiment: MIC against other indicators (data not shown); assay type: cell-based
Procedure: as §1

[8] = test system: S. aureus ATTC 33591 biofilm; experiment: LIVE/DEAD biofilm staining, confocal microscopy; assay type: cell-based, Staphylococcus aureus; conditions: data not shown

C/C=C(\NC(=O)c1csc(-c2csc(-c3ccc4c(n3)-c3csc(n3)[C@H]([C@@H](C)O)NC(=O)c3csc(n3)[C@H](C(C)C)NC(=O)c3csc(n3)/C(=C/C)NC(=O)[C@H]([C@@H](C)O)NC(=O)c3csc-4n3)n2)n1)C(=O)NC[C@@H](C)O [MP1, micrococcin P1]
MIC [1]: 2.5 µg/mL
MIC50 ([2]; Staphylococcus haemolyticus, STRAINS40684073, read-out: MIC50 values over strains): 0.02 to 0.15 µg/mL
MIC ([3]; Table 8): > 2.5 µg/mL
antimicrobial effect in the mouse skin wound model [4]: Neither MP1 nor the cream base showed any antimicrobial effect
resistance development on agar plates [5]: resistant colonies of MRSA appeared within the inhibition zones
MIC [6]: 2.5 µg/mL
MIC values, range [7]: 1 to 10 µg/mL

CC1(C)S[C@@H]2[C@H](NC(=O)Cc3ccccc3)C(=O)N2[C@H]1C(=O)O [Penicillin G]
MIC ([3]; Table 9): > 125 µg/mL
LIVE/DEAD staining pattern [8]: increased resistance

MKFKFNPTGTIVKKLTQYEINWYKQQYGRYPWERPVA [Hybrid K1-EJ]
MIC50 values over strains [2]: 0.78 µg/mL

B1: Garvicin KS: three-peptide leaderless bacteriocin (GarA, GarB, GarC; SEQ ID NO:6-8), peptides synthesized (peptide, listed as Lactococcus garvieae)
chain 1: MGAIIKAGAKIVGKGVLGGGASWLGWNVGEKIWK
chain 2: MGAIIKAGAKIIGKGLLGGAAGGATYGGLKKIFG
chain 3: MGAIIKAGAKIVGKGALTGGGVWLAEKLFGGK
LIVE/DEAD staining pattern [8]: increased resistance
resistance development on agar plates [5]: resistant colonies of MRSA appeared within the inhibition zones
MIC values, range [7]: 1 to 20 µg/mL
